Patent US20180168208A1 (priority 2014, published 2018)
pEC50: −log10 of the molar value. Structures can show the parent of a compound that is named as a salt. Where two headings read alike, the source gives them in different places.

Molecular target: T1, cat T1R1/T1R3 receptor (Felis catus, UniProt A0ABI7Z2I4)
T1 sequence (A0ABI7Z2I4 171-420): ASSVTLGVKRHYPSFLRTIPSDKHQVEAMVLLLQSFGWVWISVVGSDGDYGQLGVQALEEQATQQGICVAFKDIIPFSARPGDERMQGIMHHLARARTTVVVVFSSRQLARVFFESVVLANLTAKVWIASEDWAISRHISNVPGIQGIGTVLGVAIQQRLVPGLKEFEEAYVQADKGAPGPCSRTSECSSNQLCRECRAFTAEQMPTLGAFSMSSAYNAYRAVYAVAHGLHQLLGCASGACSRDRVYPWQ
T1 sequence (Q49KI5 25-865 E206Q/N523D/F654L partner): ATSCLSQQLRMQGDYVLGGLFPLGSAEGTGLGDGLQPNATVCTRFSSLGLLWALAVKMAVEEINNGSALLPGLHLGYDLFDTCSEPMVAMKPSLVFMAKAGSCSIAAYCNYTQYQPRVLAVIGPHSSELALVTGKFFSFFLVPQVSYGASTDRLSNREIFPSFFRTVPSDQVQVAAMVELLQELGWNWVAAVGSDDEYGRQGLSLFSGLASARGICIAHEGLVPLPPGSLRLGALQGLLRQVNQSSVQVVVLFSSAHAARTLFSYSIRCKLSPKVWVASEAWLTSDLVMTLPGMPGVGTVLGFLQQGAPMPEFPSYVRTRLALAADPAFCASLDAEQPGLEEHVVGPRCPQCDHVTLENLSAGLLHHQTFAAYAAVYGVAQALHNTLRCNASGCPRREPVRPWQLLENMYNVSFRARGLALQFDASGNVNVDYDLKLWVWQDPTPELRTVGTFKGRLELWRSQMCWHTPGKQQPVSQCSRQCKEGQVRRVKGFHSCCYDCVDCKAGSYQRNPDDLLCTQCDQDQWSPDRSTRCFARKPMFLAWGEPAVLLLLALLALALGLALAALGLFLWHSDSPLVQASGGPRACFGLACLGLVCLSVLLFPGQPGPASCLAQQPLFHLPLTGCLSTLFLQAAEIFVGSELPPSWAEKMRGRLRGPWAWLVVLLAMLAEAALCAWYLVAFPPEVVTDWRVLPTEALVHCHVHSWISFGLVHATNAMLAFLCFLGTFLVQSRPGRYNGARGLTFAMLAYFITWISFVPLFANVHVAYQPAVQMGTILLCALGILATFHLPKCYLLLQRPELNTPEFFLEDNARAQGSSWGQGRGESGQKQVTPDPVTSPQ
Assay: cell-based
Details: for function as activators of T1R1/T1R3 (in words): in the presence of alanine
From the text: HEK293 cells that stably express T1R3 and inducibly express T1R1 were exposed to nucleotide derivatives alone or in combination with one or more amino acids and/or one or more nucleotides to activate the umami receptor. Activation of the T1R1/T1R3 receptor was detected by a change in intracellular calcium levels using a calcium sensitive fluorescent dye and/or a luminescent reporter system. Cells that express T1R3 but not T1R1 were used as a control. A FLIPR® Tetra or a FlexStation® 3 was used for data capture.

[1] = maximum response in relation to the response with IMP, 20 mM alanine
[2] = maximum response of the receptor, 20 mM alanine
[3] = threshold amount that results in activation of T1R1/T1R3, 20 mM alanine

CNc1ccccc1C(=O)O[C@H]1C[C@H](n2cnc3c(N)ncnc32)O[C@@H]1COP(=O)(O)O [2′-Deoxy-3′-O-(N′-methylanthraniloyl)adenosine-5′-O-monophosphate]
Activity: active
Max resp. (ΔF/F): 0.3975 ΔF/F
Max. resp. % of IMP: 32.0 % of IMP
Threshold: 0.0025 mM

Nc1nc2c(ncn2C2CC(OP(=O)(O)O)C(COP(=O)(O)O)O2)c(=O)[nH]1 (stereo not drawn) [2′-Deoxyguanosine-3′,5′-O-bisphosphate]
Activity: active
Max resp. (ΔF/F): 1.8925 ΔF/F
Max. resp. % of IMP: 152.3 % of IMP
Threshold: 0.005 mM
function as activators of T1R1/T1R3 (in words): activators of T1R1/T1R3

Nc1nc2c(ncn2[C@@H]2O[C@H](COP(=O)(O)O)[C@@H](O)[C@H]2O)c(=S)[nH]1 [6-thioguanosine-5′-O-monophosphate]
pEC50: 6.05
Threshold: 0.0002 mM
function as activators of T1R1/T1R3 (in words): activators of T1R1/T1R3

Nc1nc2c(ncn2[C@@H]2O[C@H](COP(O)(O)=S)[C@@H](O)[C@H]2O)c(=O)[nH]1 [Guanosine-5′-monophosphorothioate]
Activity: active
pEC50: 5.00
Max resp. (ΔF/F): 1.29 ΔF/F
Max. resp. % of IMP: 103.8 % of IMP
Threshold: 0.0025 mM
function as activators of T1R1/T1R3 (in words): activators of T1R1/T1R3

O=P(O)(O)OC[C@H]1O[C@@H](n2cnc3c2ncn2ccnc32)[C@H](O)[C@@H]1O [1, N6-Ethenoadenosine-5′-O-monophosphate]
Threshold: 0.010 mM

Nc1nc2c(nc(Br)n2[C@@H]2O[C@H](COP(=O)(O)O)[C@@H](O)[C@H]2O)c(=O)[nH]1 [8-Bromoguanosine-5′-O-monophosphate]
Activity: active
Max resp. (ΔF/F): 0.375 ΔF/F
Max. resp. % of IMP: 30.2 % of IMP
Threshold: 1 mM

Nc1nc2c(ncn2C2CC(O)C(COP(O)(O)=S)O2)c(=O)[nH]1 (stereo not drawn) [2′-Deoxyguanosine-5′-O-monophosphorothioate]
Activity: active
Max resp. (ΔF/F): 1.0775 ΔF/F
Max. resp. % of IMP: 86.7 % of IMP
Threshold: 0.0025 mM
function as activators of T1R1/T1R3 (in words): activators of T1R1/T1R3

Nc1ncnc2c1nc(Cl)n2[C@@H]1O[C@H](COP(=O)(O)O)C(O)C1O (stereo partly drawn) [8-Chloroadenosine-5′-O-monophosphate]
Max resp. (ΔF/F): 0.79 ΔF/F
Max. resp. % of IMP: 63.6 % of IMP
Threshold: 0.2 mM
Activity (+Alanine (20 mM)): active

O=c1ccn(C2OC(COP(=O)(O)N3CCOCC3)C(O)C2O)c(=O)[nH]1 (stereo not drawn)
Max. resp. % of IMP [1]: 104.8 % of IMP
Max resp. (ΔF/F) [2]: 1.0150 ΔF/F
Threshold [3]: 2.000 mM

O=c1[nH]cnc2c1ncn2C1OC(COP(=O)(O)OP(=O)(O)O)C(O)C1O (stereo not drawn) [Inosine 5′-diphosphate (IDP) sodium salt, inosine 5′-diphosphate (IDP) sodium salt]
Activity: active
Max resp. (ΔF/F): 0.3 ΔF/F
Max. resp. % of IMP: 33.3 % of IMP
Threshold [3]: 0.1625 mM

O=P(O)(O)OCC1OC(n2cnc3c(Cl)ncnc32)C(O)C1O (stereo not drawn) [6-chloropurineriboside-5′-O-monophosphate]
pEC50: 5.70
Threshold: 0.0005 mM
function as activators of T1R1/T1R3 (in words): activators of the T1R1/T1R3 receptor

Nc1ncnc2c1ncn2[C@@H]1O[C@H](COP(=O)(O)O)[C@@H](O)[C@H]1O [adenosine monophosphate]
Activity: active
Threshold: 0.003 mM

2′-,3′-O-(N′-Methylanthraniloyl)guanosine-5′-O-monophosphate
Activity (+Alanine (20 mM)): active
Max. resp. % of IMP [1]: 74.3 % of IMP
Max resp. (ΔF/F) [2]: 0.7190 ΔF/F
Threshold [3]: 0.0014 mM
